Data set [1] can be described thus: physchem. The settings on record: buffer, pH 7.
A short description of data set [2]: Experiment-2: stability, half-life in phosphate buffer (PBS) pH 7 at room temperature. The settings on record: phosphate buffer (PBS) pH 7, room temperature.
For data set [3] the following is noted: buffer, pH 7.
The subject of data set [4] is L1210 tumor cells. The experiment in a line: Experiment-3: antitumor efficacy in L1210 tumor-bearing CDF1 mice (ILS). Format: in vivo. The settings on record: for Weight Changes: first day to seventh day. As to the method:
In the following test, antitumor efficacy studies were performed using 8-9 weeks old female CDF1 mice, the average weight of the animal is 20-25 grams (The experimental animals were purchased from Vital River Laboratory Animal Technology Co. Ltd.). L1210 tumor cells (about 10^5 cells per mouse) were inoculated intraperitoneally. The fluorine-containing water-soluble platinum complexes were used to treat the tumor-bearing animals and the efficacy was compared with the clinical platinum antitumor drugs. […] Drugs were administered intraperitoneally on day 1 and day 4 after tumor cell transplantation. The number of experimental animals in each group was 6.
The increase in life span (ILS) is calculated as follows:
Wherein, St=the weighted median survival time of treated animals; Su=the weighted median survival time of untreated animals

The conditions of data set [5]: background data of clinical drugs; cited from earlier work.
Data set [6] can be described thus: Experiment-1: solubility in water at room temperature.
Where [7] appears, read: 1.25 mg/Kg i.p. day 1 and day 4.

Like-named read-outs stand apart in the source and are kept apart here.

In general, half-life refers to how long it takes for the measured level to halve. Higher therefore signals slow decline. `O=C1[O][Pt]2([NH][C@@H]3CCCC[C@H]3[NH]2)[O]C(=O)C1(F)COC1O[C@H](CO)[C@@H](O)[C@H](O)[C@H]1O` (stereo partly drawn) [Example 23, cis-[trans-(1R,2R)-diaminocyclohexane]platinum (II) (1-O-D-glucoside-ethane-2-fluoro-2,2-dicarboxylate)] had a half-life in data set [1] of 89 h.
`O=C1[O][Pt]2([NH][C@@H]3CCCC[C@H]3[NH]2)[O]C1=O` [Oxaliplatin, oxaliplatin] registered a half-life in data set [2] of 24 h.
Compound “cis-[trans-(1R,2R)-diaminocyclohexane] Pt (II) (1-O-D-mannoside-propane-3-fluoro-3,3-dicarboxylate) [Example 9]” had a half-life in data set [3] of 48 h.
With `O=C1[O][Pt]([NH]C2CC2)([NH]C2CC2)[O]C(=O)C1(F)CCOC1O[C@H](CO)[C@@H](O)[C@H](O)[C@H]1O` (stereo partly drawn) [Example 17, dicyclopropylamino platinum (II) (1-O-D-glucoside-propane-3-fluoro-3,3-dicarboxylate)], the half-life in data set [1] was 62 h.
`[NH2][Pt]1([NH2])[O]C(=O)C(F)(CCOC2O[C@H](CO)[C@@H](O)[C@H](O)[C@H]2O)C(=O)[O]1` (stereo partly drawn) [Example 3, diamine Pt (II) (1-O-D-glucoside-propane-3-fluoro-3,3-dicarboxylate)] had a half-life in data set [1] of 52 h.
What is called ILS is the gain in survival time of treated over control animals, in per cent. Low readings indicate little gain in survival, high ones much gain in survival. As for `N.N.[Cl][Pt][Cl]` [Cisplatin, cisplatin], the ILS was 36% in data set [4] (setting [7]); 100% in data set [4] (2.5 mg/Kg i.p. day 1 and day 4). The “Survival Animals on Day 42” value in data set [4] (setting [7]) was 0/6; in data set [4] (2.5 mg/Kg i.p. day 1 and day 4), 0/6; in data set [4] (5.0 mg/Kg i.p. day 1 and day 4) it was 3/6.
Regarding `N.N.O=C([O-])C1(C(=O)[O-])CCC1.[Pt+2]` [Carboplatin, carboplatin], the “Water Solubility” value in data set [5] is 17.0 mg/mL. Further, the solubility in data set [6] is listed as 17.0 mg/1 mL H2O. Besides, in data set [4] (20 mg/Kg i.p. day 1 and day 4), the increase in lifespan (ILS) was 10%, the “Survival Animals on Day 42” value was 0/6 and the “Weight Changes” value is recorded as “+0 g”. Besides, in data set [4] (40 mg/Kg i.p. day 1 and day 4), the ILS came to 24%, the “Survival Animals on Day 42” value is recorded as 0/6 and the “Weight Changes” value was -0.3 g. For the same compound, in data set [4] (80 mg/Kg i.p. day 1 and day 4), the increase in lifespan (ILS) is listed as 55%, the “Survival Animals on Day 42” value is listed as 0/6 and the “Weight Changes” value is -1.2 g.
Turning to `[NH2][Pt]1([NH2])[O]C(=O)C(F)(COC2O[C@H](CO)[C@@H](O)[C@H](O)[C@H]2O)C(=O)[O]1` (stereo partly drawn) [Example 24, diamine platinum (II) (1-O-D-glucoside-ethane-2-fluoro-2,2-dicarboxylate)], the half-life in data set [1] was 73 h.
In turn, “cis-[trans-(1R,2R)-diaminocyclohexane] Pt (II) (1-O-D-glucoside-propane-3-fluoro-3,3-dicarboxylate) [Example 1]” showed a half-life in data set [2] of 44 h.
